# Laboratory results published in patent US4559323A, “A41030 Antibiotics” (Eli Lilly and Company, priority 1984, dated 1985).
# Like-named read-outs stand apart in the source and are kept apart here.
# What was measured:
# Clostridium perfringens = assay type: cell-based; details: Table 14; Clostridium perfringens 81
# Staph. aureus = assay: Experimental bacterial infection in mice, subcutaneous ED50; assay type: in vivo; details: two doses subcutaneously
# Protocol: (§1) All of the A41030 factors tested have shown in vivo antimicrobial activity against experimental bacterial infections. When two doses of test compound were administered subcutaneously to mice in illustrative infections, the activity observed is measured as an ED50 value [effective dose in mg./kg. to protect fifty percent of the test animals: See Warren Wick, et al., J. Bacteriol. 81, 233-235 (1961)].
# S. pyogenes = assay: as above; assay type: in vivo; details: two doses subcutaneously
# Protocol: as §1
# S. pneumoniae = assay: as above; assay type: in vivo; details: two doses subcutaneously
# Protocol: as §1
# Propionibacterium acnes = assay: Agar-dilution MIC (anaerobes); assay type: cell-based; details: Table 14; Propionibacterium acnes 79
# Excerpt: Antibiotic A41030 factors A, B and C have also been tested and found to be active against a genus of anaerobic bacteria identified as Propionibacterium acnes.
# [1] = tested on: Fusobacterium necrophorum; assay: Agar-dilution MIC (anaerobes); assay type: cell-based; details: Table 14; Fusobacterium necrophorum 6054A
# [2] = tested on: Peptococcus asaccharolyticus; assay: Agar-dilution MIC (anaerobes); assay type: cell-based; details: Table 14; Peptococcus asaccharolyticus 1302
# Staphylococcus aureus = assay: Agar-dilution MIC; assay type: cell-based; details: Table 17, 24 hours
# Clostridium difficile [3] = assay type: cell-based; details: Table 16
# Excerpt: The A41030 antibiotic factors A, B, C, D, E, F, and G, are also active against a number of strains of Clostridium difficile, as determined by the agar-dilution method.
# Salmonella typhi = assay: Agar-dilution MIC; assay type: cell-based; details: Table 17, 24 hours
# Clostridium difficile [4] = assay type: cell-based; details: Table 14; Clostridium difficile 2994
# Clostridium septicum = assay: Agar-dilution MIC (anaerobes); assay type: cell-based; details: Table 14; Clostridium septicum 1128
# Eubacterium aerofaciens = assay: Agar-dilution MIC (anaerobes); assay type: cell-based; details: Table 14; Eubacterium aerofaciens 1235
# B. thetaiotaomicron = assay type: cell-based; details: Table 14; Bacteroides thetalotaomicron 1438
# Excerpt: (§2) The agar-dilution procedure described by the International Collaborative study (ICS) group was used to determine the minimum inhibitory concentrations (MIC's).
# [5] = Electrometric titration (pKa); assay type: physicochemical; details: electrometric titration in 66% dimethylformamide in water
# Fusobacterium symbiosum = assay: Agar-dilution MIC (anaerobes); assay type: cell-based; details: Table 14; Fusobacterium symbiosum 1470
# Streptococcus pneumoniae = assay: Agar-dilution MIC; assay type: cell-based; details: Table 17; 24 hours; Streptococcus pneumoniae Park I
# Excerpt: as §2
# [6] = tested on: Streptococcus sp. (Group D); assay: Agar-dilution MIC; assay type: cell-based; details: Table 17, 24 hours
# Excerpt: as §2
# [7] = tested on: Staphylococcus epidermidis; assay: Agar-dilution MIC; assay type: cell-based; details: Table 17; 24 hours; Staphylococcus epidermidis EPI1
# Excerpt: as §2
# Streptococcus pyogenes = assay: Agar-dilution MIC; assay type: cell-based; details: Table 17; 24 hours; Streptococcus pyogenes C203
# Excerpt: as §2
# Bacteroides fragilis = assay: Agar-dilution MIC (anaerobes); assay type: cell-based; details: Table 14
# Excerpt: as §2
# [8] = tested on: Peptostreptococcus anaerobius; assay: Agar-dilution MIC (anaerobes); assay type: cell-based; details: Table 14; Peptostreptococcus anaerobius 1428
# Bacteroides vulgatis = assay: Agar-dilution MIC (anaerobes); assay type: cell-based; details: Table 14; Bacteroides vulgatis 1211
# Hemophilus influenzae = assay: Agar-dilution MIC; assay type: cell-based; details: Table 17, 24 hours
# Bacteroides corrodens = assay: Agar-dilution MIC (anaerobes); assay type: cell-based; details: Table 14; Bacteroides corrodens 1874
# [9] = tested on: Bacteroides melaninogenicus; assay: Agar-dilution MIC (anaerobes); assay type: cell-based; details: Table 14; Bacteroides melaninogenicus 2736
# Peptococcus prevoti = assay: Agar-dilution MIC (anaerobes); assay type: cell-based; details: Table 14; Peptococcus prevoti 1281
# Solubility in solvents = assay type: physicochemical; details: solvents as named
# Excerpt: The seven antibiotic factors are recovered from the fermentation and are obtained as a mixture, the A41030 complex. It will be recognized that the ratio of the factors in the A41030 complex will vary, depending upon the fermentation conditions used. The individual factors […], and G are separated and isolated as individual compounds, as hereinafter described.
# [10] = tested on: Peptostreptococcus intermedius; assay: Agar-dilution MIC (anaerobes); assay type: cell-based; details: Table 14; Peptostreptococcus intermedius 1264
substance,measurement,setting,value
A41030 factor E,MIC,Clostridium perfringens,1.0 µg/mL
same,ED50,Staph. aureus,< 0.31 mg/kg
same,ED50,S. pyogenes,3.54 mg/kg
same,ED50,S. pneumoniae,3.11 mg/kg
same,MIC,Propionibacterium acnes,0.5 µg/mL
same,MIC,[1],0.5 µg/mL
same,MIC,[2],≤ 0.25 µg/mL
same,MIC,Staphylococcus aureus; Staphylococcus aureus 3055,0.125 µg/mL
same,MIC,Staphylococcus aureus; Staphylococcus aureus S13E,0.25 µg/mL
same,MIC,Staphylococcus aureus; Staphylococcus aureus V41,0.25 µg/mL
same,MIC,Staphylococcus aureus; Staphylococcus aureus X400,0.25 µg/mL
same,MIC,Clostridium difficile [3]; C. difficile 78,0.5 µg/mL
same,MIC,Clostridium difficile [3]; C. difficile 107B,0.5 µg/mL
same,MIC,Clostridium difficile [3]; C. difficile 111F,0.5 µg/mL
same,MIC,Clostridium difficile [3]; C. difficile 1153,1.0 µg/mL
same,MIC,Clostridium difficile [3]; C. difficile 2634,1.0 µg/mL
same,MIC,Clostridium difficile [3]; C. difficile 3424-5B,0.5 µg/mL
same,MIC,Clostridium difficile [3]; C. difficile 3816,0.5 µg/mL
same,MIC,Clostridium difficile [3]; C. difficile 3950,0.5 µg/mL
same,MIC,Clostridium difficile [3]; C. difficile 6890,0.5 µg/mL
same,MIC,Clostridium difficile [3]; C. difficile 8484,0.5 µg/mL
same,MIC,Clostridium difficile [3]; C. difficile A-194,0.5 µg/mL
same,MIC,Clostridium difficile [3]; C. difficile A-195,0.5 µg/mL
same,MIC,Clostridium difficile [3]; C. difficile A-196,1.0 µg/mL
same,MIC,Clostridium difficile [3]; C. difficile A-279,0.5 µg/mL
same,MIC,Clostridium difficile [3]; C. difficile A-280,0.5 µg/mL
same,MIC,Clostridium difficile [3]; C. difficile A-281,1.0 µg/mL
same,MIC,Clostridium difficile [3]; C. difficile WAL-2112,0.5 µg/mL
same,MIC,Clostridium difficile [3]; C. difficile WAL-3657,0.5 µg/mL
same,MIC,Clostridium difficile [3]; C. difficile WAL-4268,0.5 µg/mL
same,MIC,Salmonella typhi; Salmonella typhi 1335,> 128 µg/mL
same,MIC,Salmonella typhi; Salmonella typhi X514,> 128 µg/mL
same,MIC,Clostridium difficile [4],0.5 µg/mL
same,MIC,Clostridium septicum,0.5 µg/mL
same,MIC,Eubacterium aerofaciens,0.5 µg/mL
same,MIC,B. thetaiotaomicron,64 µg/mL
same,"pKa, first titratable group",[5],about 5.8
same,"pKa, second titratable group",[5],~7.7
same,MIC,Fusobacterium symbiosum,1.0 µg/mL
same,MIC,Streptococcus pneumoniae,0.25 µg/mL
same,MIC,[6]; Streptococcus sp. Group D 9960,1 µg/mL
same,MIC,[6]; Streptococcus sp. Group D X66,1 µg/mL
same,MIC,[7],0.25 µg/mL
same,MIC,Streptococcus pyogenes,0.25 µg/mL
same,MIC,Bacteroides fragilis; Bacteroides fragilis 111,64 µg/mL
same,MIC,Bacteroides fragilis; Bacteroides fragilis 1877,32 µg/mL
same,MIC,Bacteroides fragilis; Bacteroides fragilis 1936B,64 µg/mL
same,MIC,[8],32 µg/mL
same,MIC,Bacteroides vulgatis,32 µg/mL
same,MIC,Hemophilus influenzae; Haemophilus influenzae 76,8 µg/mL
same,MIC,Hemophilus influenzae; Haemophilus influenzae C.L.,8 µg/mL
same,MIC,Bacteroides corrodens,64 µg/mL
same,MIC,[9],32 µg/mL
same,MIC,Peptococcus prevoti,32 µg/mL
same,Solubility,Solubility in solvents,soluble in the same solvents as factor A
same,MIC,[10],32 µg/mL
